Data from EP0140154A2, “1,2,4-Triazolylpropanols, and their production and use” (SUMITOMO CHEMICAL COMPANY, LIMITED, priority 1983, dated 1985).
Counter-ions that a name gives are not always drawn.

Experiments:
[1] = Liver weight increase test; format: in vivo, DDY strain male mice; conditions: mice infected with Candida albicans KB-8, survived animals
Description: Liver weight increase test:- • Candida albicans KB-8 was intraveously injected into DDY strain male mice of 5 weeks old, every 20 animals being grouped, at a rate of […] cells per mouse. After infection, the animals were orally medicated with the test compound in the form of 0.5 % methylcellulose suspension once a day for 20 consecutive days, during which observation on the liver weight was continued.
The average liver weight in survived animals as calculated are shown in Table 5, from which it is understood that the liver weight is not increased when the compound of the invention is given at a daily dose of not more than 4 mg/kg, while the liver weight is increased when the compound of Japanese Patent Publn. (unexamined) No. 185571/83 is given at a daily dose of not less than 1 mg/kg.

[2] = system: Candida albicans KB-8; experiment: Antifungal activity test (in vivo), Candida albicans infection in mice; conditions: DDY male mice infected i.v. with 10^7 cells; oral, total dose 20 mg/kg at 0, 5, 24 and 48 hours after infection; 10 days observation; number in brackets is the non-medicated control
Experimental: Antifungal activity test (in vivo):-Candida albicans KB-8 as pre-cultured at 30°C for 4 days was suspended in physiologically saline solution, and the suspension was intravenously injected into DDY strain
male mice of 5 weeks old, every 10 animals being grouped, through the tail vein so as to inoculate a cell number of 10^7 per animal.
(§1) The animals were orally medicated with the test compound in the form of 0.5 % methylcellulose suspension at a total dose of 20 mg per kg of the body weight 0, 5, 24 and 48 hours after the infection, and observation was continued for 10 days after the infection. The results are shown in Table 2, wherein the numeral indicates an average number of survival days of 10 animals as one group in contrast to that of the non-medicated (control) group.
For comparison, the following compounds were also tested: [drawing 6] [drawing 7]

[3] = Acute toxicity; conditions: mouse, in vivo; DDY male mice, oral, 0.5 % methylcellulose suspension, seven days after medication, Probit method
Experimental: Acute toxicity:- • DDY strain male mice of 5 weeks old, every 10 mice being grouped, received orally the test compound in the form of 0.5 % methylcellulose suspension at a dose from five kinds increasing with a common ratio of 1.3, and observation on the death of animals was continued. Seven days after the medication, the LD50 value was calculated from the rate of death according to the Probit method.

[4] = system: Aspergillus fumigatus MTU 16001; experiment: Antifungal activity test (in vivo), Aspergillus fumigatus infection in mice; conditions: DDY male mice infected i.v. with 2 x 10^6 cells, oral; for Survival rate at complete death of non-medicated group (%): total dose 20 mg/kg at 0, 5, 24 and 48 hours; for Average survival day(s): total dose 20 mg/kg, 10 days observation
Experimental: (§2) Antifungal activity test (in vivo):- • Aspergillus fumigatus MTU 16001 or Cryptococcus neoformans MTU 13001 as pre-cultured at 30°C for 4 days was suspended in physiologically saline solution, and the suspension was intravenously injected into DDY strain male mice of 5 weeks old (body weight, 24 - 27 g), every 10 animals being grouped, through the tail vein so as to inoculate a cell number of 2 x 10^6 per animal.
as §1, with “3,” for “2,”

[5] = system: Cryptococcus neoformans MTU 13001; experiment: Antifungal activity test (in vivo), Cryptococcus neoformans infection in mice; conditions: DDY male mice infected i.v. with 2 x 10^6 cells, oral; for Survival rate at complete death of non-medicated group (%): total dose 20 mg/kg at 0, 5, 24 and 48 hours; for Average survival day(s): total dose 20 mg/kg, 10 days observation
Experimental: as §2
as §1, with “3,” for “2,”

[6] = dose 0.5 mg/kg p.o. once a day for 20 consecutive days
[7] = dose 1.0 mg/kg p.o. once a day for 20 consecutive days
[8] = dose 2.0 mg/kg p.o. once a day for 20 consecutive days
[9] = dose 4.0 mg/kg p.o. once a day for 20 consecutive days
[10] = dose 8.0 mg/kg p.o. once a day for 20 consecutive days

SMILES	Average weight of liver [1, 6]	Average weight of liver [1, 7]	Average weight of liver [1, 8]	Average weight of liver [1, 9]	Average weight of liver [1, 10]	Average survival days (control) [2]	LD50 at 168 h [3]	Survival rate at complete death of non-medicated group (%) [4]	Average survival day(s) [4]	Survival rate at complete death of non-medicated group (%) [5]	Average survival day(s) [5]
CCCCC[S+]([O-])CC(O)(Cn1cncn1)c1ccc(Cl)cc1Cl (single isomer, unassigned) [1A, 2-(2,4-dichlorophenyl)-3-n-pentylsulfinyl-l-(l,2,4-triazol-1-yl)propan-2-ol oxalate]	1.20 g	1.18 g	1.15 g	1.25 g	1.60 g	9.0 (1.2) days	1740 mg/kg				
CC(C)CC[S+]([O-])CC(O)(Cn1cncn1)c1ccc(Cl)cc1Cl (single isomer, unassigned) [3A]						7.7 (1.2) days	> 2000 mg/kg				
CCCC(C)[S+]([O-])CC(O)(Cn1cncn1)c1ccc(Cl)cc1Cl (single isomer, unassigned) [4A]						9.2 (1.2) days	> 1500 mg/kg				
CCC(CC)[S+]([O-])CC(O)(Cn1cncn1)c1ccc(Cl)cc1Cl (single isomer, unassigned) [5A]						8.9 (1.2) days	> 2000 mg/kg				
CCC(C)(C)[S+]([O-])CC(O)(Cn1cncn1)c1ccc(Cl)cc1Cl (stereo not drawn) [Compound No. 2A, 2-(2,4-dichlorophenyl)-3-tert-pentylsulfinyl-1-(1,2,4-triazol-1-yl)propan-2-ol]						9.7 (1.2) days	1830 mg/kg	70%	311000 s	90%	743000 s
CS(=O)(=O)CC(O)(Cn1cncn1)c1ccc(Cl)cc1Cl (stereo not drawn) [I, reference compound]	1.30 g	1.50 g	1.70 g	1.85 g	1.90 g	9.6 (1.2) days	770 mg/kg	60%	233000 s	80%	674000 s
CCC(C)(C)S(=O)(=O)CC(O)(Cn1cncn1)c1ccc(Cl)cc1Cl (stereo not drawn) [II, reference compound]						1.4 (1.0) days					
CC(=O)N1CCN(c2ccc(OCC3COC(Cn4ccnc4)(c4ccc(Cl)cc4Cl)O3)cc2)CC1 (stereo not drawn) [Ketoconazole, reference compound]						4.8 (0.8) days	1100 mg/kg				
